{"source": "paper PMC10518257", "about": "(Nature Cancer, 2023)", "key": {"[1]": {"system": "phosphorylation of RET^G810R, RET^G810S and RET^G810C in Ba/F3 cells", "assay": "Western blotting of RET phosphorylation in Ba/F3 KIF5B–RET cells", "assay_type": "cell-based", "details": "1 h, western blot"}, "LUAD-0087AS2 PDX": {"system": "LUAD-0087AS2 PDX", "assay": "PDX efficacy study", "details": "pralsetinib 30 mg/kg BID"}, "LC-2/ad cells": {"system": "LC-2/ad cells", "assay": "Growth inhibition (alamarBlue, 96 h)", "assay_type": "cell-based, human", "details": "for raw viability signal (Source Data Fig. 3b-c): LC-2/Ad, replicate sets"}, "Ba/F3 cells": {"system": "Ba/F3 cells", "assay": "Growth inhibition assay in Ba/F3 cells (CellTiter-Glo, 72 h)", "assay_type": "cell-based", "details": "replicate Sets 1-3"}, "[2]": {"target": "panel of 255 (vepafestinib) or 256 (all other inhibitors) recombinant kinases", "assay": "Kinase selectivity profiling at a single concentration (Carna Biosciences)", "assay_type": "biochemical", "details": "17 nM, 256 kinases"}, "[3]": {"target": "T1, panel of 255 (vepafestinib) or 256 (all other inhibitors) recombinant kinases (Homo sapiens, UniProt P35916)", "T1 construct": "purchased Carna Biosciences", "T1 sequence (P35916 25-1363)": "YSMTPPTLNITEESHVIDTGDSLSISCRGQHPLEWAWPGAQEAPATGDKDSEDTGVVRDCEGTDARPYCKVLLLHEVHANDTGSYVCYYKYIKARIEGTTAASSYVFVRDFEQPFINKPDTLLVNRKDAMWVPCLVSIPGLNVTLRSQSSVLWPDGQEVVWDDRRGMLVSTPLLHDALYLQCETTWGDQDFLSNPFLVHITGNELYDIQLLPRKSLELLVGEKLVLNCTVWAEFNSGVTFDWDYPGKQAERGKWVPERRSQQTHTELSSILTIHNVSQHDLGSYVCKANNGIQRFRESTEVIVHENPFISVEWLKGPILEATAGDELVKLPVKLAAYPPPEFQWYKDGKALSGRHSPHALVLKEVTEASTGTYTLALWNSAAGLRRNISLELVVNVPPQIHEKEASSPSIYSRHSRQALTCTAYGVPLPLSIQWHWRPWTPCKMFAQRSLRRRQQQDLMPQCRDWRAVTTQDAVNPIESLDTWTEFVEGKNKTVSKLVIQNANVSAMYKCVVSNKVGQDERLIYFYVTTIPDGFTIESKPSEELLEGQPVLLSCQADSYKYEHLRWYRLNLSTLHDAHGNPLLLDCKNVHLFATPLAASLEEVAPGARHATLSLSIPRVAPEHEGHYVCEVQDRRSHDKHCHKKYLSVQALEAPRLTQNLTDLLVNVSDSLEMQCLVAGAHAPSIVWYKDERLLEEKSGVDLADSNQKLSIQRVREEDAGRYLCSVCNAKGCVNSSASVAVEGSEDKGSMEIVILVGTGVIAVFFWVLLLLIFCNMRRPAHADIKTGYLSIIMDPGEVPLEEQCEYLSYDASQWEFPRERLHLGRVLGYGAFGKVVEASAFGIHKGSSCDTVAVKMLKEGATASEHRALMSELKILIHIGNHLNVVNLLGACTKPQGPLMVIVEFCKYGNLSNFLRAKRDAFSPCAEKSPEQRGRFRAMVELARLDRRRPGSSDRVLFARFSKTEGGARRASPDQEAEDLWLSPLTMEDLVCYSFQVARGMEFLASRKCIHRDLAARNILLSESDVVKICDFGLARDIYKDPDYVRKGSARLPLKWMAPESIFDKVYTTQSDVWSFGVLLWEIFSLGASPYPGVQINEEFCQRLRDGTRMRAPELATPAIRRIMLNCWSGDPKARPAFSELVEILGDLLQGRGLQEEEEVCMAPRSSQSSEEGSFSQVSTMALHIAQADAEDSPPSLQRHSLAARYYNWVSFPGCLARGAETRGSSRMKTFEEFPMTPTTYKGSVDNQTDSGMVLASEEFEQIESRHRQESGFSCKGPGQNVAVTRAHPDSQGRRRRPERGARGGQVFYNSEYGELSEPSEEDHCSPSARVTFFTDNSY", "assay": "Kinase selectivity profiling at a single concentration (Carna Biosciences)", "assay_type": "biochemical", "details": "17 nM"}, "[4]": {"target": "T2, panel of 255 (vepafestinib) or 256 (all other inhibitors) recombinant kinases (Homo sapiens, UniProt P16234)", "T2 construct": "purchased Carna Biosciences", "T2 sequence (P16234 24-1089)": "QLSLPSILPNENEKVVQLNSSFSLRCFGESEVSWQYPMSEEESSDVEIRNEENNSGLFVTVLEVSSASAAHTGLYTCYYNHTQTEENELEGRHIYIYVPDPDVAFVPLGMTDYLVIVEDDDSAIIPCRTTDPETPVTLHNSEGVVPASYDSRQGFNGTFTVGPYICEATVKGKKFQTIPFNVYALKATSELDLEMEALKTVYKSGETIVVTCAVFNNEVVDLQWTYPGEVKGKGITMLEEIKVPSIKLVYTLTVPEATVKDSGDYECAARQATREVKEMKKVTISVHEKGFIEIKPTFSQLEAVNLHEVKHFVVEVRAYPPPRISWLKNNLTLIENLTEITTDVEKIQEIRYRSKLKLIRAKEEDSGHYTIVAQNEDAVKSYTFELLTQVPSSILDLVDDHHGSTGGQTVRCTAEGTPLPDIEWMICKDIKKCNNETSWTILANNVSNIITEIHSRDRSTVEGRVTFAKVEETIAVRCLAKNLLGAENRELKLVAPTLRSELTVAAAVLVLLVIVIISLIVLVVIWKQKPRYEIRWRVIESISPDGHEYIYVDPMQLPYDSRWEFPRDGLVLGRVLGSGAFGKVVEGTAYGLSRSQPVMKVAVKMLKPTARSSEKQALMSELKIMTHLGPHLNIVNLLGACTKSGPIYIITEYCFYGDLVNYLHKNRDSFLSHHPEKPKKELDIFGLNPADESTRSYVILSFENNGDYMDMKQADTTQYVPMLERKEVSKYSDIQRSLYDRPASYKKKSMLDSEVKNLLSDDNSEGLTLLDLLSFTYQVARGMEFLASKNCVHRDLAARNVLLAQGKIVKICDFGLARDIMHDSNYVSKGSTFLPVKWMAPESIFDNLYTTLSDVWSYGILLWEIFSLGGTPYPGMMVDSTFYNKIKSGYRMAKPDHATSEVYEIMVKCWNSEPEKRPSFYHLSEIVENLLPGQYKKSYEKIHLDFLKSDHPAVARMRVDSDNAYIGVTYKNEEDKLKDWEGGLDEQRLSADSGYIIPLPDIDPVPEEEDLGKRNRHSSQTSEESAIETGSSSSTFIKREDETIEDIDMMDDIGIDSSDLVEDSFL", "assay": "Kinase selectivity profiling at a single concentration (Carna Biosciences)", "assay_type": "biochemical", "details": "17 nM"}, "[5]": {"system": "Ba/F3 cells expressing KIF5B–RET^G810C", "assay": "Growth inhibition assay in Ba/F3 cells (CellTiter-Glo, 72 h)", "assay_type": "cell-based", "details": "replicate Sets 1-3"}, "MMNK1 cholangiocytes": {"system": "MMNK1 cholangiocytes", "assay": "Growth inhibition (alamarBlue, 96 h)", "assay_type": "cell-based, human", "details": "for raw viability signal (Source Data Fig. 3b-c): MMNK, replicates"}, "LUAD-0002AS1 cells": {"system": "LUAD-0002AS1 cells", "assay": "Growth inhibition (alamarBlue, 96 h)", "assay_type": "cell-based, human", "details": "for raw viability signal (Source Data Fig. 3b-c): LUAD-0002AS1, replicate sets"}, "LUAD-0077AS1 PDX": {"system": "LUAD-0077AS1 PDX", "assay": "PDX efficacy study", "assay_type": "in vivo, NSG mice", "set-up": "Tumor volume: unit not given here", "details": "for Area Under Curve Mean: Fig. 6b LUAD-0077AS1 tumor growth; for Change in tumor volume (block without heading, Fig. 6b) / Tumor volume: LUAD-0077AS1, individual animals"}, "[6]": {"details": "Homo sapiens, 96 h, read-out: IC50 for Inhibition of Growth (95% CI)"}}, "note": "Where “and” joins values, the source holds several entries; their conditions need not be identical. Equal entries are not always repeated.", "data": [{"compound": "CO[C@]1(C(=O)N[C@@H](C)c2ccc(-n3cc(F)cn3)nc2)CC[C@H](c2nc(C)cc(Nc3cc(C)[nH]n3)n2)CC1", "note": "[Pralsetinib]", "values": [{"measurement": "block of phosphorylation of RET^G810R, RET^G810S or RET^G810C", "setting": "[1]", "value": "did not block"}, {"measurement": "Change in tumor volume (% from base line)", "setting": "LUAD-0087AS2 PDX; Fig. 6a LUAD-0087AS2, individual animals", "value": "-36.557% and -40.331% and -44.442% and -50.767%"}, {"measurement": "Area Under Curve Mean", "setting": "LUAD-0087AS2 PDX; Fig. 6a LUAD-0087AS2 tumor growth", "value": -1718}, {"measurement": "IC50", "setting": "LC-2/ad cells; Homo sapiens, LC-2-ad, 96 h, read-out: IC50 for Inhibition of Growth (95% CI)", "value": 18, "unit": "nM"}, {"measurement": "raw viability signal (Source Data Fig. 3b-c)", "setting": "LC-2/ad cells; 0.01 nM", "value": "14336.4 and 23167.3"}, {"measurement": "raw viability signal (Source Data Fig. 3b-c)", "setting": "LC-2/ad cells; 0.1 nM", "value": "14242.4 and 23367.8"}, {"measurement": "raw viability signal (Source Data Fig. 3b-c)", "setting": "LC-2/ad cells; 1 nM", "value": "13261.9 and 22232.1"}, {"measurement": "raw viability signal (Source Data Fig. 3b-c)", "setting": "LC-2/ad cells; 10 nM", "value": "6314.77 and 17508.9"}, {"measurement": "raw viability signal (Source Data Fig. 3b-c)", "setting": "LC-2/ad cells; 100 nM", "value": "3979.18 and 8357.34"}, {"measurement": "raw viability signal (Source Data Fig. 3b-c)", "setting": "LC-2/ad cells; 1000 nM", "value": "2225.01 and 2896.43"}, {"measurement": "raw viability signal (Source Data Fig. 3b-c)", "setting": "LC-2/ad cells; 10000 nM", "value": "918.728 and 947.198"}, {"measurement": "GI50", "setting": "Ba/F3 cells; Ba/F3 (parental)", "value": 1420, "unit": "nM"}, {"measurement": "GI50", "setting": "Ba/F3 cells; Mus musculus, BaF3, Ba/F3 (parental)", "value": 1070, "unit": "nM"}, {"measurement": "kinases inhibited by >50%", "setting": "[2]", "value": 11}, {"measurement": "% Inhibiton FLT4", "setting": "[3]", "value": 74, "unit": "%"}, {"measurement": "% Inhibiton PDGFRα", "setting": "[4]", "value": 57.1, "unit": "%"}, {"measurement": "GI50", "setting": "[5]; Ba/3-KIF5B-RET-G810C", "value": 44.4, "unit": "nM"}, {"measurement": "GI50", "setting": "[5]; Mus musculus, BaF3, Ba/3-KIF5B-RET-G810C", "value": 66.9, "unit": "nM"}, {"measurement": "IC50", "setting": "MMNK1 cholangiocytes; [6]", "value": 1220, "unit": "nM"}, {"measurement": "raw viability signal (Source Data Fig. 3b-c)", "setting": "MMNK1 cholangiocytes; 0.01 nM", "value": "14061.5 and 14595.7"}, {"measurement": "raw viability signal (Source Data Fig. 3b-c)", "setting": "MMNK1 cholangiocytes; 0.1 nM", "value": "14508.1 and 15314.3"}, {"measurement": "raw viability signal (Source Data Fig. 3b-c)", "setting": "MMNK1 cholangiocytes; 1 nM", "value": "14527.4 and 15275.2"}, {"measurement": "raw viability signal (Source Data Fig. 3b-c)", "setting": "MMNK1 cholangiocytes; 10 nM", "value": "14437.6 and 14593.5"}, {"measurement": "raw viability signal (Source Data Fig. 3b-c)", "setting": "MMNK1 cholangiocytes; 100 nM", "value": "12743.6 and 12893.3"}, {"measurement": "raw viability signal (Source Data Fig. 3b-c)", "setting": "MMNK1 cholangiocytes; 1000 nM", "value": "8417.95 and 8619.63"}, {"measurement": "raw viability signal (Source Data Fig. 3b-c)", "setting": "MMNK1 cholangiocytes; 10000 nM", "value": "2073.73 and 2410.62"}, {"measurement": "IC50", "setting": "LUAD-0002AS1 cells; [6]", "value": 4, "unit": "nM"}, {"measurement": "raw viability signal (Source Data Fig. 3b-c)", "setting": "LUAD-0002AS1 cells; 0.01 nM", "value": "15231.7 and 11282.9 and 12487.7"}, {"measurement": "raw viability signal (Source Data Fig. 3b-c)", "setting": "LUAD-0002AS1 cells; 0.1 nM", "value": "13433.7 and 11365.6 and 12797.1"}, {"measurement": "raw viability signal (Source Data Fig. 3b-c)", "setting": "LUAD-0002AS1 cells; 1 nM", "value": "14274.6 and 7102.45 and 10515"}, {"measurement": "raw viability signal (Source Data Fig. 3b-c)", "setting": "LUAD-0002AS1 cells; 10 nM", "value": "5412.04 and 2878.75 and 4059.15"}, {"measurement": "raw viability signal (Source Data Fig. 3b-c)", "setting": "LUAD-0002AS1 cells; 100 nM", "value": "2211.78 and 2052.44 and 2966.29"}, {"measurement": "raw viability signal (Source Data Fig. 3b-c)", "setting": "LUAD-0002AS1 cells; 1000 nM", "value": "1138.02 and 1548.13 and 2436.62"}, {"measurement": "raw viability signal (Source Data Fig. 3b-c)", "setting": "LUAD-0002AS1 cells; 10000 nM", "value": "935.955 and 1429.45 and 2173.09"}, {"measurement": "Area Under Curve Mean", "setting": "LUAD-0077AS1 PDX; 15 mg/kg BID", "value": 189.7}, {"measurement": "Area Under Curve Mean", "setting": "LUAD-0077AS1 PDX; 30 mg/kg BID", "value": -512.3}, {"measurement": "Change in tumor volume (block without heading, Fig. 6b)", "setting": "LUAD-0077AS1 PDX; 15 mg/kg BID", "value": "31.8218 and 17.159 and 11.071 and 13.2706 and -8.805"}, {"measurement": "Tumor volume", "setting": "LUAD-0077AS1 PDX; 15 mg/kg BID, treatment day 0", "value": "88.7 (3×) and 87.11 (2×)"}, {"measurement": "Tumor volume", "setting": "LUAD-0077AS1 PDX; 15 mg/kg BID, treatment day 4", "value": "88.7 (4×) and 87.11"}, {"measurement": "Tumor volume", "setting": "LUAD-0077AS1 PDX; 15 mg/kg BID, treatment day 7", "value": "88.7 (2×) and 80.89 and 77.87 and 90.28"}, {"measurement": "Tumor volume", "setting": "LUAD-0077AS1 PDX; 15 mg/kg BID, treatment day 11", "value": "66.76 and 80.89 (2×) and 42.6 and 72.18"}, {"measurement": "Tumor volume", "setting": "LUAD-0077AS1 PDX; 15 mg/kg BID, treatment day 14", "value": "70.82 and 80.89 and 64.12 and 83.97 and 73.54"}, {"measurement": "Tumor volume", "setting": "LUAD-0077AS1 PDX; 15 mg/kg BID, treatment day 19", "value": "80.89 and 98.67 and 103.92 and 114.83 and 98.52"}, {"measurement": "Tumor volume", "setting": "LUAD-0077AS1 PDX; 15 mg/kg BID, treatment day 22", "value": "150.13 and 109.36 and 130.83 and 152.27 and 164.53"}, {"measurement": "Tumor volume", "setting": "LUAD-0077AS1 PDX; 15 mg/kg BID, treatment day 25", "value": "166.88 and 122.74 and 141.32 and 205.88 and 187.29"}, {"measurement": "Change in tumor volume (block without heading, Fig. 6b)", "setting": "LUAD-0077AS1 PDX; 30 mg/kg BID", "value": "-26.3021 and -30.7542 and -32.7343 and -33.6127 and -36.9233"}, {"measurement": "Tumor volume", "setting": "LUAD-0077AS1 PDX; 30 mg/kg BID, treatment day 0", "value": "88.7 and 87.11 (2×) and 82.36 (2×)"}, {"measurement": "Tumor volume", "setting": "LUAD-0077AS1 PDX; 30 mg/kg BID, treatment day 4", "value": "88.7 (2×) and 87.11 and 82.36 and 83.97"}]}]}
